Data as given in PMC10452266, “Divergent Pharmacology and Biased Signaling of the Four Melanocortin-4 Receptor Isoforms in Rainbow Trout (Oncorhynchus mykiss)” (Biomolecules, 2023).

Target: T1, hMC4R (Homo sapiens, UniProt P32245)
T1 construct: expressed in transfected cells; host or cells: HEK293T
Test: Ligand-binding assay (displacement of 125I-NDP-MSH), hMC4R
Procedure: Cells were plated into 24-well or 6-well plates pre-coated with 0.1% gelatin and transfected with plasmids by the calcium phosphate precipitation method.
A binding assay was conducted as described previously.
Binding assays were used to investigate the binding properties of omMc4rs. […] Data are expressed as % of hMC4R binding ± range from duplicate measurements within one experiment. The curves are representative of at least three independent experiments.

T1 sequence (P32245 whole entry): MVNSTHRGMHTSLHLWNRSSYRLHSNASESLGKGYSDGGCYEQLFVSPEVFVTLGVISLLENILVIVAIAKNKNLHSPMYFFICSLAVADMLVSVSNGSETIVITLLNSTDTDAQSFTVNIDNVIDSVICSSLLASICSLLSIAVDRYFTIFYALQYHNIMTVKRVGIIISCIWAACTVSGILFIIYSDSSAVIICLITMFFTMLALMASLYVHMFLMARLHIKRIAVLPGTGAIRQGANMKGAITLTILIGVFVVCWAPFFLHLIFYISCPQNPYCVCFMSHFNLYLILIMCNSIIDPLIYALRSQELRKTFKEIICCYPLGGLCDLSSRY

Molecule `CSCC[C@@H]1NC(=O)[C@H](C)NC(=O)[C@H]([C@@H](C)O)NC(=O)CNC(=O)[C@H](CC(C)C)NC(=O)[C@H](CCCCN)NC(=O)[C@H](CCCNC(=N)N)NC(=O)[C@@H]2CSSC[C@@H]3NC(=O)[C@@H]4CCCN4C(=O)[C@H](C(C)C)NC(=O)[C@H](CCC(N)=O)NC(=O)[C@H](CCC(N)=O)NC(=O)CNC(=O)[C@H](CC(C)C)NC(=O)[C@@H]4CSSC[C@H](NC(=O)[C@H]([C@@H](C)O)NC(=O)[C@H](C)NC(=O)[C@H](CSSC[C@@H](C(=O)N[C@@H](CO)C(=O)N[C@@H](CCCNC(=N)N)C(=O)N[C@H](C(=O)O)[C@@H](C)O)NC(=O)[C@@H]5CCCN5C(=O)[C@H](CC(N)=O)NC1=O)NC(=O)[C@@H]1CCCN1C(=O)[C@H](CC(=O)O)NC(=O)[C@H](CSSC[C@H](NC(=O)[C@H](CCCNC(=N)N)NC(=O)[C@H](CCCNC(=N)N)NC(=O)[C@H](CO)NC(=O)[C@@H](N)CO)C(=O)N[C@@H](C(C)C)C(=O)N[C@@H](CCCNC(=N)N)C(=O)N[C@@H](CC(C)C)C(=O)N[C@@H](Cc1c[nH]cn1)C(=O)N[C@@H](CCC(=O)O)C(=O)N[C@@H](CO)C(=O)N4)NC3=O)C(=O)N[C@@H](Cc1ccc(O)cc1)C(=O)N[C@H]1CSSC[C@H](NC(=O)[C@H](Cc3ccccc3)NC(=O)[C@H](C)NC(=O)[C@H](CC(N)=O)NC(=O)[C@H](Cc3ccccc3)NC(=O)[C@H](Cc3ccccc3)NC(=O)[C@H](CCCNC(=N)N)NC1=O)C(=O)N[C@@H](Cc1ccc(O)cc1)C(=O)N2` [AgRP] has an IC50 of 0.0325 ± 0.00776 µM.
